Assay results from publication PMC4076284, “A Characteristic Back Support Structure in the Bisphenol A-Binding Pocket in the Human Nuclear Receptor ERRγ” (PLoS ONE, 2014).

How the values were obtained:
[1] = biological target: T1, Lys430Ala-ERRγ mutant receptor (GST-fused LBD) (Homo sapiens, UniProt P62508, K430A); conditions: heterogeneous binding assay using [^3H]BPA
Procedure: (§1) Wild-type and mutant ERRγ-LBD proteins were expressed as glutathione S-transferase (GST)-fused preparations in E. coli BL21 as described previously [1], [24], [25]. […] After loading the protein solution, the column was incubated for 1 h at 4°C, and then washed three times with PBS containing 0.5% (v/v) Triton X-100 and once with sonication buffer (50 mM Tris-HCl (pH 8.0), 50 mM NaCl, 1 mM EDTA, and 1 mM dithiothreitol). […] The protein concentrations were determined by the Bradford method [26].
(§2) Competitive binding assays were performed in the presence of GST-fused wild-type ERRγ-LBD or its mutants at the most appropriate concentration of each receptor. […] Radioactivity was determined on a liquid scintillation counter TopCount NXT (PerkinElmer Life Sciences Japan Co., Ltd., Tokyo, Japan). To estimate the binding affinity, the IC50 values (the concentrations for the half-maximal inhibition) were calculated from the dose-response curves evaluated by the nonlinear analysis program ALLFIT [30]. Each assay was performed at least three times.

[2] = biological target: T2, His434Phe-ERRγ mutant receptor (GST-fused LBD) (Homo sapiens, UniProt P62508, H434F); conditions: heterogeneous competitive binding
Procedure: as §1, §2

[3] = biological target: Leu345Ala-ERRγ mutant receptor (GST-fused LBD) (Homo sapiens, UniProt P62508, L345A); assay: biochemical
Procedure: as §1, §2

[4] = biological target: T3, Val313Ala-ERRγ mutant receptor (GST-fused LBD) (Homo sapiens, UniProt P62508, V313A); conditions: BPA value re-collected from the previous report, read-out: Receptor binding potency IC50; cited from earlier work
T3 construct: wild-type ERRγ-LBD encoding 222-458 residues was generated by PCR; made in house; host or cells: E. coli BL21

[5] = biological target: T4, Val313Leu-ERRγ mutant receptor (GST-fused LBD) (Homo sapiens, UniProt P62508, V313L); conditions: BPA value re-collected from the previous report, read-out: Receptor binding potency IC50; cited from earlier work
T4 construct: wild-type ERRγ-LBD encoding 222-458 residues was generated by PCR; made in house; host or cells: E. coli BL21

[6] = biological target: T2, His434Phe-ERRγ mutant receptor (GST-fused LBD); assay: biochemical
Procedure: as §1, §2

[7] = biological target: T5, Tyr330Ala-ERRγ mutant receptor (GST-fused LBD) (Homo sapiens, UniProt P62508, Y330A); assay: Competitive binding assay using [^3H]BPA
T5 construct: wild-type ERRγ-LBD encoding 222-458 residues was generated by PCR; made in house; host or cells: E. coli BL21
Procedure: as §1, §2

[8] = biological target: T6, Ile310Ala-ERRγ mutant receptor (GST-fused LBD) (Homo sapiens, UniProt P62508, I310A); conditions: BPA value re-collected from the previous report, read-out: Receptor binding potency IC50; cited from earlier work
T6 construct: wild-type ERRγ-LBD encoding 222-458 residues was generated by PCR; made in house; host or cells: E. coli BL21

[9] = biological target: T1, Lys430Ala-ERRγ mutant receptor (GST-fused LBD); assay: biochemical
Procedure: as §1, §2

[10] = biological target: Asn346Gln-ERRγ mutant receptor (GST-fused LBD) (Homo sapiens, UniProt P62508, N346Q); assay: biochemical
Procedure: as §1, §2

[11] = biological target: Leu345Val-ERRγ mutant receptor (GST-fused LBD) (Homo sapiens, UniProt P62508, L345V); assay: biochemical
Procedure: as §1, §2

[12] = biological target: T7, Asn346Tyr-ERRγ mutant receptor (GST-fused LBD) (Homo sapiens, UniProt P62508, N346Y); assay: Competitive binding assay using [^3H]BPA
T7 construct: wild-type ERRγ-LBD encoding 222-458 residues; made in house; host or cells: E. coli BL21
Procedure: as §1, §2

ERRγ mutant receptors = assay: [^3H]BPA saturation and/or competitive binding: ranges stated over several ERRγ mutants or both assays; set-up: species or system human; conditions: for Activity decrements vs wild-type: competitive binding (Table 2)
Procedure: The reaction mixture was incubated at 4°C for 2 h with the receptor proteins—GST-fused wild-type ERRγ-LBD or its mutants—in 100 µl of binding buffer [10 mM HEPES (pH 7.5), 50 mM NaCl, 2 mM MgCl2, 1 mM EDTA, 2 mM CHAPS, and 2 mg/ml γ-globulin]. The assay was performed with or without the addition of unlabelled BPA (final concentration of 1.0×10^-5 M) to quantify the specific and nonspecific binding. After incubation with 100 µl of 1% dextran-coated charcoal (DCC) (Sigma-Aldrich) in PBS (pH 7.4) for 10 min at 4°C, the DCC-absorbed free radio-ligand was removed by the direct vacuum filtration method using a 96-well filtration plate (MultiScreen^HTS HV, 0.45 µm pore size; Millipore, Billerica, MA, USA) for the bound/free separation. Radioactivity was determined on a liquid scintillation counter (LS6500; Beckman Coulter, Fullerton, CA, USA).
The saturation binding assay was performed at least three times.
Each assay was performed at least three times.

[13] = biological target: Ile349Leu-ERRγ mutant receptor (GST-fused LBD) (Homo sapiens, UniProt P62508, I349L); assay: biochemical
Procedure: as §2

[14] = biological target: T8, Tyr330Phe-ERRγ mutant receptor (GST-fused LBD) (Homo sapiens, UniProt P62508, Y330F); assay: Competitive binding assay using [^3H]BPA
T8 construct: wild-type ERRγ-LBD encoding 222-458 residues was generated by PCR; made in house; host or cells: E. coli BL21
Procedure: as §1, §2

[15] = biological target: Ile349Ala-ERRγ mutant receptor (GST-fused LBD) (Homo sapiens, UniProt P62508, I349A); assay: biochemical
Procedure: as §2

[16] = biological target: GST-fused wild-type ERRγ-LBD (Homo sapiens, UniProt P62508); assay: biochemical; conditions: [^3H]BPA 5 nM, 4°C, 2 h
Procedure: as §1, §2

[17] = biological target: T9, Asn346Gly-ERRγ mutant receptor (GST-fused LBD) (Homo sapiens, UniProt P62508, N346G); assay: Competitive binding assay using [^3H]BPA
T9 construct: wild-type ERRγ-LBD encoding 222-458 residues; made in house; host or cells: E. coli BL21
Procedure: as §1, §2

[18] = biological target: T10, Leu345Ile-ERRγ mutant receptor (GST-fused LBD) (Homo sapiens, UniProt P62508, L345I); assay: Competitive binding assay using [^3H]BPA
T10 construct: wild-type ERRγ-LBD encoding 222-458 residues; made in house; host or cells: E. coli BL21
Procedure: as §1, §2

[19] = biological target: T3, Val313Ala-ERRγ mutant receptor (GST-fused LBD); assay: Competitive binding assay using [^3H]BPA; conditions: competitive binding (Table 3, BPA value from ref 24)
Procedure: as §1, §2

[20] = biological target: Ile349Val-ERRγ mutant receptor (GST-fused LBD) (Homo sapiens, UniProt P62508, I349V); assay: biochemical
Procedure: as §2

[21] = biological target: Leu342Ile-ERRγ mutant receptor (GST-fused LBD) (Homo sapiens, UniProt P62508, L342I); assay: biochemical
Procedure: as §1, §2

[22] = biological target: Leu342Val-ERRγ mutant receptor (GST-fused LBD) (Homo sapiens, UniProt P62508, L342V); assay: biochemical
Procedure: as §1, §2

[23] = biological target: Asn346Ala-ERRγ mutant receptor (GST-fused LBD) (Homo sapiens, UniProt P62508, N346A); assay: biochemical
Procedure: as §1, §2

[24] = read-out: Receptor binding potency IC50

T7 sequence (P62508 222-458 N346Y): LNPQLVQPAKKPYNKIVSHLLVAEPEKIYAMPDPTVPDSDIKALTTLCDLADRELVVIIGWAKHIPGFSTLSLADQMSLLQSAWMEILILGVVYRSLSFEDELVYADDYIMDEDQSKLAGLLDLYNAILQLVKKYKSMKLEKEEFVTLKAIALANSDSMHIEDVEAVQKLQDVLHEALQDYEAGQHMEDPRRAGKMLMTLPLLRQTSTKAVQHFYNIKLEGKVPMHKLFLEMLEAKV
T5 sequence (P62508 222-458 Y330A): as the sequence (P62508 222-458 N346Y) above, with Y109A, Y125N counted along it
Sequence of GST-fused wild-type ERRγ-LBD (P62508 222-458): as the sequence (P62508 222-458 N346Y) above, with Y125N counted along it
T2 sequence (P62508 222-458 H434F): as the sequence (P62508 222-458 N346Y) above, with Y125N, H213F counted along it
T9 sequence (P62508 222-458 N346G): as the sequence (P62508 222-458 N346Y) above, with Y125G counted along it
T8 sequence (P62508 222-458 Y330F): as the sequence (P62508 222-458 N346Y) above, with Y109F, Y125N counted along it
T1 sequence (P62508 222-458 K430A): as the sequence (P62508 222-458 N346Y) above, with Y125N, K209A counted along it
T3 sequence (P62508 222-458 V313A): as the sequence (P62508 222-458 N346Y) above, with V92A, Y125N counted along it
T10 sequence (P62508 222-458 L345I limits assumed): as the sequence (P62508 222-458 N346Y) above, with L124I, Y125N counted along it
Sequence of Ile349Leu-ERRγ mutant receptor (GST-fused LBD) (P62508 222-458 I349L): as the sequence (P62508 222-458 N346Y) above, with Y125N, I128L counted along it
Sequence of Asn346Ala-ERRγ mutant receptor (GST-fused LBD) (P62508 222-458 N346A): as the sequence (P62508 222-458 N346Y) above, with Y125A counted along it
Sequence of Leu345Val-ERRγ mutant receptor (GST-fused LBD) (P62508 222-458 L345V limits assumed): as the sequence (P62508 222-458 N346Y) above, with L124V, Y125N counted along it
T4 sequence (P62508 222-458 V313L limits assumed): as the sequence (P62508 222-458 N346Y) above, with V92L, Y125N counted along it
T6 sequence (P62508 222-458 I310A limits assumed): as the sequence (P62508 222-458 N346Y) above, with I89A, Y125N counted along it
Sequence of Leu342Val-ERRγ mutant receptor (GST-fused LBD) (P62508 222-458 L342V limits assumed): as the sequence (P62508 222-458 N346Y) above, with L121V, Y125N counted along it
Sequence of Asn346Gln-ERRγ mutant receptor (GST-fused LBD) (P62508 222-458 N346Q): as the sequence (P62508 222-458 N346Y) above, with Y125Q counted along it
Sequence of Ile349Ala-ERRγ mutant receptor (GST-fused LBD) (P62508 222-458 I349A limits assumed): as the sequence (P62508 222-458 N346Y) above, with Y125N, I128A counted along it
Sequence of Leu345Ala-ERRγ mutant receptor (GST-fused LBD) (P62508 222-458 L345A limits assumed): as the sequence (P62508 222-458 N346Y) above, with L124A, Y125N counted along it
Sequence of Ile349Val-ERRγ mutant receptor (GST-fused LBD) (P62508 222-458 I349V limits assumed): as the sequence (P62508 222-458 N346Y) above, with Y125N, I128V counted along it
Sequence of Leu342Ile-ERRγ mutant receptor (GST-fused LBD) (P62508 222-458 L342I limits assumed): as the sequence (P62508 222-458 N346Y) above, with L121I, Y125N counted along it

SMILES: CC/C(=C(\c1ccc(O)cc1)c1ccc(OCCN(C)C)cc1)c1ccccc1 [4-OHT, 4-hydroxytamoxifen]
- Reinforced binding potency vs wild-type [1]: about 40%
- Reduction in receptor-binding potency vs wild-type [2]: more than 40 fold

SMILES: CC(C)(c1ccc(O)cc1)c1ccc(O)cc1 [BPA, bisphenol A]
- IC50 [3]: 60.6 ± 11.2 nM
- IC50 [4]: 26.8 ± 2.12 nM
- IC50 [5]: 16 ± 1.41 nM
- IC50 [6]: 13.7 ± 0.66 nM
- Reduction in IC50 value vs wild-type ([7]; Tyr330Ala mutant, homologous competitive binding): more than 60 fold
- IC50 [7, 24]: 361 ± 39.3 nM
- IC50 [8]: 21.9 ± 0.99 nM
- IC50 [9]: 9.7 ± 0.37 nM
- IC50 [10]: 56.1 ± 7.42 nM
- IC50 [11]: 154 ± 17.5 nM
- Reduction in binding affinity vs wild-type ([12]; Asn346Tyr mutant, competitive binding): approximately 9 fold
- IC50 [12, 24]: 45.2 ± 8.91 nM
- Reduced binding affinity vs wild-type (ERRγ mutant receptors; Asn346Ala mutant, saturation and competitive binding (Tables 1 and 2)): 2–4 times
- Reduction in the affinity vs wild-type (ERRγ mutant receptors; Asn346Gln mutant, saturation and competitive binding (Tables 1 and 2)): 3-10 fold
- Activity decrements vs wild-type (ERRγ mutant receptors; Asn346 mutant receptors (Ala, Gly, Gln, Tyr)): 4.0–11.3 times
- Reduction in affinity vs wild-type (ERRγ mutant receptors; Ile349Ala mutant, saturation and competitive binding (Tables 1 and 2)): 3-4 fold
- Activity decrements vs wild-type (ERRγ mutant receptors; Ile349Val and Ile349Leu mutants): 110-135%
- Reduction in IC50 value vs wild-type (ERRγ mutant receptors; Leu342Val and Leu342Ile mutants, homologous competitive binding (Table 2)): 5–7 fold
- Reduction in the binding affinity vs wild-type (ERRγ mutant receptors; Leu342Val and Leu342Ile mutants, saturation binding (Table 1)): 3–4 fold
- IC50 [13]: 10.4 ± 0.64 nM
- Reduction in IC50 value vs wild-type ([14]; Tyr330Phe mutant, homologous competitive binding): approximately 3 fold
- IC50 [14, 24]: 16.1 ± 0.58 nM
- IC50 [15]: 20.1 ± 3.24 nM
- IC50 ([16]; Receptor binding potency IC50, wild-type ERRγ (Table 2)): 4.96 ± 0.71 nM
- IC50 ([16]; Receptor binding potency IC50, wild-type ERRγ (Table 3, back support series)): 5.64 ± 0.17 nM
- Binding affinity relative to the wild-type ERRγ (IC50) ([17]; Asn346Gly mutant, homologous competitive binding): ca. 12%
- IC50 [17, 24]: 42.4 ± 5.44 nM
- Decrease in binding vs wild-type ([18]; Leu345Ile mutant, homologous competitive binding): approximately 30 fold
- IC50 [18, 24]: 158 ± 19.8 nM
- Reduction in binding affinities vs wild-type [19]: approximately 5 fold
- IC50 [20]: 11.7 ± 1.5 nM
- IC50 [21]: 24.5 ± 4.53 nM
- IC50 [22]: 34.7 ± 5.38 nM
- IC50 [23]: 20.1 ± 3.41 nM
